Assay results from publication PMC9674596, “Origin of acetylcholine antagonism in ELIC, a bacterial pentameric ligand-gated ion channel” (Communications Biology, 2022).

Assays:
Type in all cases: cell-based, Erwinia chrysanthemi
wild-type ELIC = target: T1, wild-type ELIC (Dickeya chrysanthemi, UniProt P0C7B7, INS163G); test: Two-electrode voltage clamp, whole-cell currents of wild-type ELIC expressed in Xenopus laevis oocytes; conditions: for IC50: ACh IC50, WT ELIC
T1 construct: expressed in transfected cells; host or cells: Xenopus laevis oocytes injected with cRNA from ELIC-pTLN
Procedure: (§1) Stage V-VI Xenopus laevis oocytes were isolated[72] and deflocculated enzymatically in ND96 buffer without Ca^2+ (96 mM NaCl, 2 mM KCl, 1 mM MgCl2, 2 mM pyruvate, 5 mM HEPES, pH 7.4), but supplemented with 1 mg/mL collagenase B and 1 mg/mL trypsin inhibitor, for 2 h at room temperature under constant stirring. The deflocculation buffer was then gradually removed by washing the oocytes in ND96 buffer (96 mM NaCl, 2 mM KCl, 1 mM MgCl2, 1 mM CaCl2, 2 mM pyruvate, 5 mM HEPES, pH 7.4) for several iterations. The oocytes were then allowed to stir for an additional hour at room temperature under constant stirring with the buffer being periodically replaced until clear. To obtain optimal receptor expression, individually selected and healthy oocytes were injected with 0.2 ng cRNA for wild-type ELIC and 5 ng cRNA for mutants. Subsequently, oocytes were incubated for one day at 16 °C in ND96^+ buffer (96 mM NaCl, 2 mM KCl, 1 mM MgCl2, 1 mM CaCl2, 2 mM pyruvate, and 5 mM HEPES at pH 7.6). After expression, injected oocytes were placed in a RC-1Z oocyte chamber (Harvard Apparatus; Hamden, CT) containing buffer (pH 7.4) composed of 150 mM NaCl, 0.5 mM BaCl2, 10 mM HEPES, and 1 mM dithiothreitol or 1 µM atropine if cysteamine, or ACh, was used in the experiment, respectively. The presence of the reducing agent, dithiothreitol, ensures that the sulfhydryl group of cysteamine remains reduced.
(§2) Once in the oocyte chamber, whole-cell currents were recorded using a two-electrode voltage-clamp apparatus (OC-725C oocyte clamp; Harvard Apparatus), with a buffer flow rate of 5–10 mL min^−1. Currents in response to various additions of cysteamine and/or ACh, were measured with the transmembrane voltage clamped at −60 mV. Dose response curves for each wild-type and mutant ELIC were acquired from at least five oocytes in two different batches. […]

ELIC Y38W = ELIC Y38W (Dickeya chrysanthemi, UniProt P0C7B7, Y38W); test: Two-electrode voltage clamp, Y38W mutant ELIC expressed in Xenopus laevis oocytes
Procedure: as §1, with “After expression, injected oocytes were placed in a RC-1Z oocyte chamber (Harvard Apparatus; Hamden, CT) containing buffer (pH 7.4) composed of 150 mM NaCl, 0.5 mM BaCl2, 10 mM HEPES, and 1 mM dithiothreitol or 1 µM atropine if cysteamine, or ACh, was used in the experiment, respectively. The presence of the reducing agent, dithiothreitol, ensures that the sulfhydryl group of cysteamine remains reduced.” left out
as §2, with “mV.” for “mV. Dose response curves for each wild-type and mutant ELIC were acquired from at least five oocytes in two different batches.”

ELIC A75D = target: T2, ELIC A75D (Dickeya chrysanthemi, UniProt P0C7B7, A75D/INS163G); test: Two-electrode voltage clamp, A75D mutant ELIC expressed in Xenopus laevis oocytes
T2 construct: expressed in transfected cells; host or cells: Xenopus laevis oocytes injected with cRNA from ELIC-pTLN

ELIC F133W = ELIC F133W (Dickeya chrysanthemi, UniProt P0C7B7, F133W); test: cell-based
Procedure: as §1, with “After expression, injected oocytes were placed in a RC-1Z oocyte chamber (Harvard Apparatus; Hamden, CT) containing buffer (pH 7.4) composed of 150 mM NaCl, 0.5 mM BaCl2, 10 mM HEPES, and 1 mM dithiothreitol or 1 µM atropine if cysteamine, or ACh, was used in the experiment, respectively. The presence of the reducing agent, dithiothreitol, ensures that the sulfhydryl group of cysteamine remains reduced.” left out
as §2, with “mV.” for “mV. Dose response curves for each wild-type and mutant ELIC were acquired from at least five oocytes in two different batches.”

SMILES | EC50 (wild-type ELIC) | IC50 (ELIC Y38W) | IC50 (wild-type ELIC; inhibition of GABA-activated current, GABA at its EC50 (2.7 mM)) | IC50 (wild-type ELIC; inhibition of cysteamine-activated current, cysteamine at its EC50 (0.6 mM)) | IC50 (ELIC A75D) | IC50 (ELIC F133W)
NCCCC(=O)O [GABA, γ-aminobutyric acid] | 2.7 ± 0.3 mM | – | – | – | – | –
CC(=O)OCC[N+](C)(C)C [ACh, acetylcholine] | – | 400 ± 100 µM | 1.1 ± 0.2 mM | 1 ± 0.2 mM | 7 ± 2 mM | 8 ± 2 mM
